# Test results reported in ChEMBL document CHEMBL1201862, “PubChem BioAssay data set” (2004).
# Activity calls are given as the source filed them.
# How the values were obtained:
# [1] = system: INS1; test: beta cell apoptosis inhibitors, cytokine rescue, dose response, luminescence, retest (AID 449756); type: functional, cell-based; settings: Rattus norvegicus;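 further: cell death triggered by IL-1 beta plus TNF-alpha plus IFN-gamma mixture; protective hits raise ATP signal compared with cytokine alone wells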
# [2] = Shn3 3'UTR reporter inhibitors, dose response, cell-based, Clone20 osteoblasts, firefly luciferase, cherry-picked (AID 624132); type: functional;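 further: firefly luciferase luminescence from reporter carrying the Shn3 3'UTR in osteoblasts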
# [3] = target: T1, Protein skinhead-1 (Caenorhabditis elegans, UniProt P34707); type: functional
# T1 sequence (P34707 whole entry): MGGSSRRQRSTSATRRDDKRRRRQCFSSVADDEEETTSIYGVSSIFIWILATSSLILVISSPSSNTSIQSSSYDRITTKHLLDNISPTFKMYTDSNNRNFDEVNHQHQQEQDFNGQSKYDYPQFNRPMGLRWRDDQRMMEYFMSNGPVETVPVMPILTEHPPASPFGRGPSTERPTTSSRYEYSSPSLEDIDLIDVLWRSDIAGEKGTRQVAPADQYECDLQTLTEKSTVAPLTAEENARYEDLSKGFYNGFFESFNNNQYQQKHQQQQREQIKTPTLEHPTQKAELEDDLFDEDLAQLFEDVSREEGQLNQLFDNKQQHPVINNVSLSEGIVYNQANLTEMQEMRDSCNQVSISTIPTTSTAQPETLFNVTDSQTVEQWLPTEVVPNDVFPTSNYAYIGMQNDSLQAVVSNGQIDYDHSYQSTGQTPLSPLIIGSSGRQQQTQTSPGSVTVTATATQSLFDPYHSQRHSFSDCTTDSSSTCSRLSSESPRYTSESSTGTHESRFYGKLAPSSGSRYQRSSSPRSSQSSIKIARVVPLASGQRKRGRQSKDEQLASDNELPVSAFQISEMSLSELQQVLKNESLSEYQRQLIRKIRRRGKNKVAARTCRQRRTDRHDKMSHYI
# [4] = HepG2 cell cytotoxicity, dose response, cytotoxicity control for Shn3 inhibitor project, CellTiter-Glo, cherry-picked (AID 624134); type: functional, cell-based
# [5] = target: FAD-linked sulfhydryl oxidase ALR (Homo sapiens, UniProt P55789); test: inhibitors of human ALR sulfhydryl oxidase, dose response, biochemical, H2O2 detection, luminescence, cherry-pick (AID 493248)
# Sequence of FAD-linked sulfhydryl oxidase ALR (P55789 whole entry): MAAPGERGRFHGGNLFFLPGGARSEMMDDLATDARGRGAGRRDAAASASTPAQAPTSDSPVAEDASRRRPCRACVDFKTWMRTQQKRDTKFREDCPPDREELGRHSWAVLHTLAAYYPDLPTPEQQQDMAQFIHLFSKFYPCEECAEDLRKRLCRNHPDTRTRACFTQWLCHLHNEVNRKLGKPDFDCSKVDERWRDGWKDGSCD
# [6] = system: Streptococcus sp. 'group A'; test: growth inhibition of control SK(-) GAS strain, dose response, counter-screen for streptokinase expression inhibitor project, luminescence, kanamycin, BacTiterGlo, confirmation (AID 1900); type: functional, organism-based
# [7] = system: Streptococcus; test: Group A Streptococcus viability loss, dose response, counter-screen for streptokinase expression inhibitor project, luminescence, BacTiterGlo (AID 1915); type: functional, organism-based;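 further: potency for reduction of bacterial viability or growth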
# [8] = target: T2, Streptokinase A (Streptococcus pyogenes serotype M1, UniProt P10520); test: S. pyogenes streptokinase expression inhibitors, potency, dose response, plasminogen activation absorbance, OD405 (AID 1914); type: functional, Streptococcus pyogenes M1 GAS;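 further: secreted streptokinase activity via plasminogen activation per viability signal from cell pellet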
# T2 sequence (P10520 whole entry): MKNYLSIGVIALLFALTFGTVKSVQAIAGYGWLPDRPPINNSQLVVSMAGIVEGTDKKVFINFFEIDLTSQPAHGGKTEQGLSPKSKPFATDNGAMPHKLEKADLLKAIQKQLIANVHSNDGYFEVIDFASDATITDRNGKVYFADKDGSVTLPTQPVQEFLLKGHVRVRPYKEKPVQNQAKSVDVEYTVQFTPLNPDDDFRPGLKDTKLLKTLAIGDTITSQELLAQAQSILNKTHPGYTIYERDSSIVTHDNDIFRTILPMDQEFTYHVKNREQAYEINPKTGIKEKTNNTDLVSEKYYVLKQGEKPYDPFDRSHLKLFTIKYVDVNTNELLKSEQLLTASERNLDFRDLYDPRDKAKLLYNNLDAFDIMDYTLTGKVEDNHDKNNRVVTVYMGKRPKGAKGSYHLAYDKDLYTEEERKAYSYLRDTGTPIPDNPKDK
# [9] = Luminescence Cell-Based Dose Retest to Confirm Inhibitors of Cancer Stem Cells. [Related pubchem assays (depositor defined):AID2717, AID2721]; type: functional; settings: Homo sapiens
# [10] = inhibitors of intracellular T. cruzi replication, confirmation, NIH3T3 host cells, beta-gal luminescence (AID 2044); type: functional, cell-based;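 further: intracellular parasites grown in NIH/3T3 mouse fibroblasts as host cells; luminescent beta-galactosidase reporter signal from transgenic T. cruzi replicating inside host cells; inhibitors lower the luminescence signal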
# [11] = cytotoxicity toward NIH3T3 fibroblasts, dose response, counter-screen, cell-based, ATP luminescence, mouse fibroblasts (AID 2010); type: functional;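 further: cells exposed to compound for about 90 hours before reading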
# [12] = microbe, parasite or virus in culture; type: functional; settings: Mycobacterium tuberculosis
# [13] = target: Luciferin 4-monooxygenase (Photinus pyralis, UniProt P08659); test: firefly luciferase enzyme inhibitors, dose response, biochemical, luminescence (AID 1891)
# Sequence of Luciferin 4-monooxygenase (P08659 whole entry): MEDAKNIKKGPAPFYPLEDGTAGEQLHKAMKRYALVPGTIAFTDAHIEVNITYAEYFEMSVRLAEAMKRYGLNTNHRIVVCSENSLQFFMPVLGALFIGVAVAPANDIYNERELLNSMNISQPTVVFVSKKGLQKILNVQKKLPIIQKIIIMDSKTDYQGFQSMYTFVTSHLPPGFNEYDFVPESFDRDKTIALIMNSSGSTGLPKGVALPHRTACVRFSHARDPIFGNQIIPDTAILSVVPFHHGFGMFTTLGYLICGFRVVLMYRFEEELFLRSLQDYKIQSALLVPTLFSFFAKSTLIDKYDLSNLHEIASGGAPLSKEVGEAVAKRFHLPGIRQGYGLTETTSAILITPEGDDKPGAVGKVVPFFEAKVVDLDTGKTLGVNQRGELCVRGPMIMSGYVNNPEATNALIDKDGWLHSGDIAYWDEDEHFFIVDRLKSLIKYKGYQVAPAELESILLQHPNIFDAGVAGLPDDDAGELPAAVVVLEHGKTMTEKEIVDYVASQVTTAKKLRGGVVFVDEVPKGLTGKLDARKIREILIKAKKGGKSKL
# [14] = Luminescence Cell-Based Dose Confirmation HTS to Identify Inhibitors of Platelet Dense Granule Release. [Related pubchem assays: 1663 (Primary HTS), 1678 (Summary of Project)]; type: functional
# [15] = target: Cytochrome P450 2C19 (Homo sapiens, UniProt P33261); test: Cytochrome panel assay with activity outcomes. Panel member name: p450-cyp2c19 Compounds with AC50 equal or less than 10 uM are considered active; type: functional; settings: read-out: AC50
# Sequence of Cytochrome P450 2C19 (P33261 whole entry): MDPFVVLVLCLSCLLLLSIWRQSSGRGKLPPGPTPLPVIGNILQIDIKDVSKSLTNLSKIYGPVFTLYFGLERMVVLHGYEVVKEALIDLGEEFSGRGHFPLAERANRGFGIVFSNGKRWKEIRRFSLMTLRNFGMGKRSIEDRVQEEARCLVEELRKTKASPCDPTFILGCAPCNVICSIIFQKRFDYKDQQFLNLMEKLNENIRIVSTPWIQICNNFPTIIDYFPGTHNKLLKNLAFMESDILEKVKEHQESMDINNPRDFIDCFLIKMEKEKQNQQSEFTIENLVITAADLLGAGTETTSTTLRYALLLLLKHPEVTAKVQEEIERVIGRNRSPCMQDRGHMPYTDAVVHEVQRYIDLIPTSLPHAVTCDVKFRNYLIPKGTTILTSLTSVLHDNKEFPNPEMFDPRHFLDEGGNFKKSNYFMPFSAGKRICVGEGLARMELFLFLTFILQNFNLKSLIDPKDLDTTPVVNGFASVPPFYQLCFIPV
# [16] = HEp-2 cell cytotoxicity, dose response, cytotoxicity control for RSV inhibitor project, HTS (AID 2410); type: functional; settings: human respiratory syncytial virus
# [17] = target: T3, Rac GTPase-activating protein 1 (Homo sapiens, UniProt Q9H0H5); test: MgcRacGAP GTPase-activating activity inhibitors, confirmation, biochemical, ADP Hunter fluorescence, primary and confirmatory (AID 624330); type: functional
# T3 sequence (Q9H0H5 whole entry): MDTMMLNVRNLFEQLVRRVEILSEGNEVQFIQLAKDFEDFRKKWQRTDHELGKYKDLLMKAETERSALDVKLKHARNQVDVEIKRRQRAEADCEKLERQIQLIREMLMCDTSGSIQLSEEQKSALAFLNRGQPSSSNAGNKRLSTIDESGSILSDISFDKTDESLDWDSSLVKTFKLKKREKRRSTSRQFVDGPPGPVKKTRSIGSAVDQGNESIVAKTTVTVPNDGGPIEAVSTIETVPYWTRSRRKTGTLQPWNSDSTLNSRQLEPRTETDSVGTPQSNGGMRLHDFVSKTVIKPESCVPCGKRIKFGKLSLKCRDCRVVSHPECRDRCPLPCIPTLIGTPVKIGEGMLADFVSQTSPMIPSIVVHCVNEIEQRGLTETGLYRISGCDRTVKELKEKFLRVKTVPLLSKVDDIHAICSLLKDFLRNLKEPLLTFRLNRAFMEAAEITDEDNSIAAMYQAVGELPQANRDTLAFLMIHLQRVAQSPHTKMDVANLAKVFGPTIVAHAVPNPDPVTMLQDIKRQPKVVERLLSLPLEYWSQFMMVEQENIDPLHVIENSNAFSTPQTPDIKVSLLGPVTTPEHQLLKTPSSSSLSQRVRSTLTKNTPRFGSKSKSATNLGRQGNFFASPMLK
# [18] = system: H4; test: Luminescence Cell-Based Dose Response HTS to Identify Activators of 5'UTR Stem-Loop Driven Prion Protein mRNA Translation in H4 Neuroglioblastoma Cells. [Related pubchem assays: 1829 (Project Summary), 1814 (Primary HTS)]; type: functional; settings: Homo sapiens
smiles,measurement,setting,value
CN(C)c1ccc(/C=C/c2ccc3ccccc3n2)cc1,AC50,[1],3.17 µM (active)
same,AC50,[2],1.33 µM (active)
same,IC50,[3],> 100 µM (inactive)
same,AC50,[4],15.9 µM (active)
CC1CN(S(=O)(=O)c2cccc(C(=O)OCC(=O)Nc3ccc4c(c3)OCO4)c2)CC(C)O1 (stereo not drawn),IC50,[3],> 100 µM (inactive)
O=C(Nc1nccs1)c1ccc(-c2ccc(F)cc2)o1,IC50,[3],> 100 µM (inactive)
COc1ccc2[nH]c(C)c(-c3csc(N)n3)c2c1,AC50,[5],5.23 µM (active)
CCOC(=O)c1c(C)cc(C)n2c1nc1ccccc12,IC50,[3],> 100 µM (inactive)
O=[N+]([O-])c1cccnc1N1CCC(c2cc(-c3ccc(Cl)cc3Cl)[nH]n2)CC1,EC50,[6],2.31 µM (active)
same,EC50,[7],13.4 µM (active)
same,EC50,[8],4.61 µM (active)
same,AC50,[9],4.74 µM (active)
O=C(COC(=O)c1c2c(nc3ccccc13)/C(=C\c1cccs1)CCC2)Nc1ccccc1,EC50,[10],1.9 µM (active)
same,EC50,[11],> 60 µM (inconclusive)
same,AC50,[9],1.54 µM (active)
Cc1cc(C)c2oc(-c3ccc(C)c(NC(=S)NC(=O)/C=C/c4ccco4)c3)nc2c1,CC50,[12],> 40 µM (active)
CCN(CC)CCOC(=O)c1ccc(NC(=O)CCCN2C(=O)/C(=C\c3cccs3)SC2=S)cc1,IC50,[3],> 100 µM (inactive)
Cc1onc(-c2ccccc2Cl)c1C(=O)Nc1ccc(Br)cc1,EC50,[13],> 112 µM (not active)
same,EC50,[14],> 112 µM (not active)
COC(=O)c1sc(NC(=O)c2ccc(C)o2)nc1C,EC50,[13],5.6 µM (active)
same,EC50,[14],> 112 µM (not active)
N#Cc1c2n(c3c(S)ncnc13)CCCCC2,AC50,[5],1.65 µM (active)
same,AC50,[15],25.1 µM (inconclusive)
CCOC(=O)c1c(-c2cccs2)csc1NC(=O)CN1CC(C)OC(C)C1 (stereo not drawn),IC50,[3],> 100 µM (inactive)
Cc1ccc(-c2ccc(CCC(=O)O)n2NC(=O)c2cccs2)cc1,AC50,[5],8.15 µM (active)
O=C(C[C@@H]1C/C=C\C[C@H](NC(=O)OCC2c3ccccc3-c3ccccc32)C(=O)OC[C@H]2CCCN2C1=O)N[C@@H](CO)Cc1ccccc1,CC50,[12],> 40 µM (active)
N#C/C(=C\c1ccco1)c1nc2ccccc2s1,IC50,[3],> 100 µM (inactive)
O=c1oc(-c2ccc([N+](=O)[O-])cc2)nc2ccc(O)cc12,EC50,[13],0.995 µM (active)
same,EC50,[14],1.72 µM (active)
O=c1c2ccccc2nnn1Cc1ccc(Br)cc1,IC50,[3],87.8 µM (inactive)
CCOc1ccc(C2c3[nH]c4ccccc4c3C[C@H]3C(=O)N(C4CCN(Cc5ccccc5)CC4)CC(=O)N23)cc1OC (stereo partly drawn),CC50,[12],38.9 µM (active)
CC(C)c1nc2scc(-c3ccc(Cl)cc3)c2c(=O)n1N,CC50,[12],> 40 µM (active)
O=C(CCCn1cc([N+](=O)[O-])cn1)NC1CCCCCC1,EC50,[13],> 112 µM (not active)
same,EC50,[14],> 112 µM (not active)
COc1ccccc1C1CCN(Cc2ccc3ccccc3c2)CC1,CC50,[12],> 40 µM (active)
same,EC50,[10],1.2 µM (active)
same,EC50,[11],> 60 µM (not active)
COc1ccccc1-n1c(SCC(=O)Nc2cc(C)on2)nc2c(c1=O)SCC2,AC50,[4],> 70 µM (inactive)
CC(C)Cc1nc2oc3c(N4CCN(CCO)CC4)ncnc3c2c2c1CCCC2,CC50,[12],33.8 µM (active)
CCN(CC(=O)Nc1sc2c(c1C#N)CCCC2)CC(=O)NC1CCS(=O)(=O)C1 (stereo not drawn),EC50,[13],> 112 µM (not active)
same,EC50,[14],> 112 µM (not active)
CC1(C)Cc2nc3[nH]nc(N)c3cc2CO1,AC50,[5],4.26 µM (active)
COn1c(-c2ccc(Cl)cc2)nc2ccc(Cl)cc21,CC50,[16],35.3 µM (active)
same,IC50,[3],10.8 µM (active)
CC(=O)N1CCN(c2ccc(NCc3cccc(C)c3)cc2)CC1,AC50,[5],0.787 µM (active)
same,IC50,[17],9.89 µM (active)
CN1C(=O)c2ccccc2NC(=O)C1Cc1ccccc1 (stereo not drawn),AC50,[5],3.26 µM (active)
CC(=O)Nc1ccc(N2C(=O)CSC2c2ccccc2)cc1 (stereo not drawn),AC50,[5],0.025 µM (active)
O=C(O)CCCN1C(=O)c2ccccc2Sc2ncccc21,IC50,[3],> 100 µM (inactive)
CC(=O)Nc1ccc(S(=O)(=O)N(C)CC(=O)NNC(=O)c2cccs2)cc1,IC50,[3],> 100 µM (inactive)
CC(C)c1ccc(Oc2cccc3c2S(=O)(=O)N(C2CCCC2)CC(COCc2ccccc2)O3)cc1 (stereo not drawn),AC50,[2],15.5 µM (active)
same,AC50,[4],> 70 µM (inactive)
COc1ccc(NC(=O)c2cc3ccccc3o/c2=N\NS(=O)(=O)c2ccc(C)cc2)cc1,EC50,[18],0.575 µM (active)
COc1ccc(OC)c(NC(=O)c2cc(-c3cc(F)ccc3OCC3CCCO3)[nH]n2)c1 (stereo not drawn),AC50,[2],10.5 µM (active)
NC(=O)c1ccccc1N/C=C/C(=O)c1ccc(Cl)cc1Cl,EC50,[13],1.1 µM (active)
same,EC50,[14],8.86 µM (active)
O=c1/c(=C/c2ccc(O)cc2)sc2n1CCCN=2,AC50,[5],1.16 µM (active)
same,IC50,[17],20.1 µM (active)
CCNc1nc(NCC)nc(N/N=C/c2ccc([N+](=O)[O-])o2)n1,CC50,[12],39 µM (active)
Cc1ccc(N/N=C2/CCCNC2=O)cc1,AC50,[5],2.66 µM (active)
CC1=CC(C)[C@H](/C=N/n2c(=O)[nH]c3c([nH]c4ccc(Br)cc43)c2=O)C(C)C1 (stereo partly drawn),EC50,[10],2.06 µM (active)
same,EC50,[11],> 60 µM (not active)
same,AC50,[9],0.876 µM (active)
